# Data reported in patent US9464064B2, “HCV helicase inhibitors and methods of use thereof” (University of Kansas, priority 2011, dated 2016).
# “And” between values parts separate entries of the source, which are not always exact repeats. Identical values can stand only once. Like-named read-outs stand apart in the source and are kept apart here.
# Tests used:
# NS3h_2a(JFH1) = molecular target: T1, NS3h_2a(JFH1) (Hepatitis C virus genotype 2a, UniProt Q99IB8); experiment: MBHA, DNA substrate, genotype 2a helicase; type: biochemical, hepatitis C virus genotype 2a(JFH1)
# T1 construct: truncated C-terminally His-tagged NS3 proteins lacking the N-terminal protease, called NS3h; His-tag (C); made in house
# Method in brief: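 Inhibition of DNA unwinding by C-terminally His-tagged recombinant NS3 helicase domain (no protease) from HCV genotype 2a JFH1 strain, measured by molecular beacon-based helicase assay (MBHA).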
# MBHA DNA substrate = experiment: Modified FID assay, SYBR Green I; type: binding; conditions: for DNA binding (%): SYBR Green I-FID, average (±SD) percent bound at 100 μM
# Method in brief: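 Fluorescent intercalator displacement with SYBR Green I (0.68 μM) in place of ethidium bromide and MBHA DNA at 0.32 μM. Normalized data fit to concentration-response equation; EC50 given as mean ± SD of three independent triplicate titrations.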
# [1] = molecular target: T2, E. coli SSB-Cy5-dT15 complex (Escherichia coli, UniProt P0AGE0); experiment: Escherichia coli SSB Cy5-dT15 binding assay (fluorescence polarization); conditions: for IC50: disruption of Cy5-dT15-SSB complex, read-out: Cy5-dT15-SSB Binding IC50; for inhibition at 100 µM: read-out: SSB % Displaced @ 100 μM; for EC50: read-out: SSB EC50
# T2 construct: purchased Promega
# Method in brief: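 Fluorescence polarization with 5 nM Cy5-dT15 and 20 nM E. coli SSB in 25 mM MOPS pH 7.5, 1.25 mM MgCl2, BSA, Tween 20, DTT. Screening at 1% DMSO; IC50 runs at 5% DMSO. Excitation 635 nm, parallel and perpendicular emission at 667 nm.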
# Huh-7.5 cells = experiment: Cell viability assay ([…]-GLO); type: cell-based, human; conditions: for Cell viability (% viable): 10 μM compound, triplicate, average ± SD
# Method in brief: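 Huh-7.5 cells exposed to compound for 72 hours, washed, then lysed in a 1:1 mix of growth medium and […]-GLO reagent. After 30 minutes at 23° C., luminescence was read for 1 second as a measure of viability.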
# [2] = genotype 2a (JFH1), read-out: Target Potency MBHA (IC50 avg., μM) 2a (JFH1) (converted)
# [3] = SYBR Green, read-out: FID (SG) EC50 (converted)
# [4] = DNA-based MBHA, genotype 2a(JFH1), read-out: DNA Helicase NS3h_2a IC50 (μM) ± SD
# T1 sequence (Q99IB8 1196-1661): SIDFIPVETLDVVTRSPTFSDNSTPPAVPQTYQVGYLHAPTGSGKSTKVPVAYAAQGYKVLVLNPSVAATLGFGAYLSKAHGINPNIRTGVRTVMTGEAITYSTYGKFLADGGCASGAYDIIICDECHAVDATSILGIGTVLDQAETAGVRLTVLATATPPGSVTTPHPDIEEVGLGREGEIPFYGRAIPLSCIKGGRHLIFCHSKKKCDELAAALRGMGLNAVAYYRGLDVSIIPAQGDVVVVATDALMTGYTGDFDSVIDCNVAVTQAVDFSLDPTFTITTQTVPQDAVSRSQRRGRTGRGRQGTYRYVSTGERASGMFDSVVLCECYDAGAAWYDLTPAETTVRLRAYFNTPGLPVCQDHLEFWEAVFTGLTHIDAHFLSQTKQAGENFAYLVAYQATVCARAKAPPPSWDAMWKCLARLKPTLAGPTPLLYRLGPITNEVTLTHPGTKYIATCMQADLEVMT
# T2 sequence (P0AGE0 2-178, one chain of several): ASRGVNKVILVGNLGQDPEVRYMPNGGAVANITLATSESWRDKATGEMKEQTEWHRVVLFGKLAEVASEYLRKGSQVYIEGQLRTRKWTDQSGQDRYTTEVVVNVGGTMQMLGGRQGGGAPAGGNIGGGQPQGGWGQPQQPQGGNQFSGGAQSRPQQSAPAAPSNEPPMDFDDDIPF
SMILES,IC50 (NS3h_2a(JFH1); [2]),"EC50 (MBHA DNA substrate; FID, mean ± SD, read-out: DNA Binding (SYBR Green I) EC50)",DNA binding (%) (MBHA DNA substrate),FID (SG) % Displaced @ 100 μM (MBHA DNA substrate; SYBR Green),EC50 (MBHA DNA substrate; [3]),IC50 [1],inhibition at 100 µM [1],EC50 [1],Cell Viability (% @ 10 μM) (Huh-7.5 cells),Cell viability (% viable) (Huh-7.5 cells),IC50 (NS3h_2a(JFH1); [4])
"Cc1ccc(C(=O)Nc2ccc(-c3nc4ccc(-c5nc6ccc(C)c(S(=O)(=O)O)c6s5)cc4s3)cc2)cc1 [Compound 11, 6-methyl-2′-(4-(4-methylbenzamido)phenyl)-[2,6′-bibenzo[d]thiazole]-7-sulfonic acid]",2.5 ± 0.5 µM,> 100 µM,50 ± 15%,50 ± 15%,> 100 µM,5 ± 2 µM,96%,5 ± 2 µM,87 ± 4%,87 ± 4%,
Cc1ccc2nc(-c3ccc(NC(=O)c4ccc(NC(=O)c5ccccc5)cc4)cc3)sc2c1S(=O)(=O)O.N [Compound 40],79.2 µM,,,18 ± 2%,> 100 µM,57 ± 13 µM,84%,57 µM,115 ± 3%,,
"Cc1ccc2nc(-c3ccc4nc(-c5ccc(NC(=O)c6c(F)cccc6C(F)(F)F)cc5)sc4c3)sc2c1S(=O)(=O)O [Compound 21, 2′-(4-(2-fluoro-6-(trifluoromethyl)benzamido)phenyl)-6-methyl-[2,6′-bibenzo[d]thiazole]-7-sulfonic acid]",54 ± 19.7 µM,,66 ± 40%,66 ± 40%,64 ± 34 µM,13 ± 1 µM,96%,13 ± 1 µM,122 ± 2%,122 ± 2%,
Cc1ccc2nc(-c3ccc4nc(-c5ccc(NC(=O)Nc6ccc(F)cc6)cc5)sc4c3)sc2c1S(=O)(=O)O.N [Compound 48],9.9 µM,,,58 ± 3%,74 µM,11 ± 2 µM,100%,11 µM,93 ± 2%,,
Cc1ccc2nc(-c3ccc4nc(-c5ccc(NC(=O)Nc6ccc(C(F)(F)F)cc6)cc5)sc4c3)sc2c1S(=O)(=O)O.N [Compound 47],4 µM,,,84 ± 22%,18 µM,15 ± 3 µM,91%,15 µM,99 ± 7%,,
Cc1ccc2nc(-c3ccc(NC(=O)c4ccc(NC(=O)Nc5ccccc5)cc4)cc3)sc2c1S(=O)(=O)O.N [Compound 45],32 µM,,,17 ± 2%,> 100 µM,20 ± 4 µM,96%,20 µM,113 ± 4%,,
"Cc1ccc2nc(-c3ccc4nc(-c5ccc(NC(=O)c6cccc(Cl)c6)cc5)sc4c3)sc2c1S(=O)(=O)O [Compound 17, 2′-(4-(3-chlorobenzamido)phenyl)-6-methyl-[2,6′-bibenzo[d]thiazole]-7-sulfonic acid]",3.9 ± 1 µM,,41 ± 11%,41 ± 11%,> 100 µM,201 ± 119 µM,47%,> 100 µM,112 ± 4%,112 ± 4%,4 ± 0.5 µM
Cc1ccc2nc(-c3ccc4nc(-c5ccc(NC(=O)c6cccc7ccccc67)cc5)sc4c3)sc2c1S(=O)(=O)O.N [Compound 49],3.9 µM,,,80 ± 3%,30 µM,9 ± 2 µM,94%,9 µM,103 ± 5%,,
"Cc1ccc2nc(-c3ccc4nc(-c5ccc(NC(=O)c6ccccc6)cc5)sc4c3)sc2c1S(=O)(=O)O [Compound 5, 2′-(4-benzamidophenyl)-6-methyl-[2,6′-bibenzo[d]thiazole]-7-sulfonic acid]",4.6 ± 1.4 µM,,31 ± 13%,31 ± 13%,> 100 µM,4 ± 1 µM,91%,4 ± 1 µM,88 ± 2%,88 ± 2%,
"Cc1ccc2nc(-c3ccc4nc(-c5ccc(NC(=O)c6ccc7ccccc7c6)cc5)sc4c3)sc2c1S(=O)(=O)O [Compound 33, 2′-(4-(2-naphthamido)phenyl)-6-methyl-[2,6′-bibenzo[d]thiazole]-7-sulfonic acid]",4.4 µM,,64 ± 7%,63 ± 11%,25 µM,28 ± 9 µM,78%,28 µM,99 ± 11%,,2 ± 0.6 µM
Cc1ccc2nc(-c3ccc(NC(=O)c4ccc(NC(=S)Nc5ccccc5)cc4)cc3)sc2c1S(=O)(=O)O.N [Compound 43],29 µM,,,37 ± 4%,> 100 µM,23 ± 5 µM,93%,23 µM,106 ± 3%,,
"Cc1ccc2nc(-c3ccc4nc(-c5ccc(NC(=O)c6cc(C(F)(F)F)ccc6F)cc5)sc4c3)sc2c1S(=O)(=O)O [Compound 25, 2′-(4-(2-fluoro-5-(trifluoromethyl)benzamido)phenyl)-6-methyl-[2,6′-bibenzo[d]thiazole]-7-sulfonic acid]",6.7 ± 1 µM,,35 ± 26%,35 ± 26%,> 100 µM,12 ± 8 µM,69%,12 ± 8 µM,132 ± 14%,132 ± 14%,7 ± 0.9 µM
Cc1ccc2nc(-c3ccc4nc(-c5ccc(NCc6ccccc6)cc5)sc4c3)sc2c1S(=O)(=O)O [Compound 53],13.5 µM,,,92 ± 4%,27 µM,5 ± 1 µM,102%,5 µM,109 ± 8%,,
"Cc1ccc2nc(-c3ccc4nc(-c5ccc(NC(=O)c6cccc(C(F)(F)F)c6F)cc5)sc4c3)sc2c1S(=O)(=O)O [Compound 22, 2′-(4-(2-fluoro-3-(trifluoromethyl)benzamido)phenyl)-6-methyl-[2,6′-bibenzo[d]thiazole]-7-sulfonic acid]",8.1 ± 2 µM,,49 ± 27%,49 ± 27%,> 100 µM,71 ± 13 µM,63%,71 ± 13 µM,122 ± 1%,122 ± 1%,
Cc1ccc2nc(-c3ccc4nc(-c5ccc(NC(=O)c6ccc7nc(-c8ccc(NC(=O)OCC9c%10ccccc%10-c%10ccccc%109)cc8)sc7c6)cc5)sc4c3)sc2c1S(=O)(=O)O.N [Compound 36],1.9 µM,,67 ± 5%,67 ± 5%,22 µM,5 ± 1 µM,95%,5 µM,95 ± 3% and 90 ± 4%,90 ± 4%,
